Experimental findings from patent US20190307893A1, “NANOVESICLES WITH PORPHYRIN-LIPID CONJUGATE CORE” (UNIVERSITY HEALTH NETWORK, priority 2016, published 2019) are described below.

What all share (assay type): physicochemical
Series [1] can be described thus: UV/visible absorption of chlorin oleylamine loaded lipoprotein nanoparticles. The note with it: for Qy-band wavelength shift: intact lipoprotein nanoparticle in PBS vs monomeric form in methanol, 10:1 DMPC:dye. The protocol: Lipid film was prepared in 12 mm×75 mm clear glass threaded vials (Fisher Scientific) by combining 0.1 μmol (4, 10, 10, 13 or 17) and 1.0 μmol DMPC in chloroform. The lipid solutions were dried under a slow stream of nitrogen gas for 30 min and further dried under a higher stream for at least 1 h before hydration. One mL of phosphate buffered saline (PBS) was added to the dried lipid films and sonicated in a 47° C. water bath for 10 minutes immediately followed by Bioruptor at low frequency (30 kHz) for 30 cycles (30 s on/30 s off) at 40° C. R4F peptide (0.1 μmol; 1 mg/mL in PBS) was added into the rehydrated solution and the mixture was mixed gently at 4° C. overnight. The solution was centrifuged at 13 500 rpm for 20 min subsequently and filtered with a 0.1 μm membrane. Unbound peptide was removed and nanoparticle sample was concentrated using a 10 kDa membrane centrifugal filter (EMD Millipore) by two rounds of centrifugation at 4000 g for 7 min at 4° C.
The UV-Vis absorption spectra of lipoprotein nanoparticles with Zn-containing oleylamine compounds 4, 10 and 17 are shown in FIG. 14. The intact structures are labeled in green (solid line) and methanol-disrupted structures are labeled in black (dashed line).

Series [2] in a line: Dynamic light scattering size measurement of chlorin derivatives embedded in liposomes. The note with it: 20% chlorin derivatives embedded within liposomes. The method, then: Lipid film was prepared in the 12 mm×35 mm clear glass threaded vials (Fisher Scientific) by combining 20% of chlorin derivatives (either Zn-MeO-chlorin acid 7, Zn-vinyl-chlorin lipid, MeO-chlorin lipid, or Zn-MeO-chlorin lipid) with 75% DPPC and 5% DPPE-mPEG2000 dissolved in MeOH or chloroform. The lipid solutions were dried under a stream of nitrogen gas for 30 min and further dried under vacuum desiccation for at least 3 h before hydration. One milliliter phosphate buffered saline (PBS) was added to the lipid films and 10 freeze and thaw cycles was performed by sequentially freezing the sample in liquid nitrogen, followed by rapid thawing in a 70° C. water bath. Dispersed particles were then subjected to extrusion by passing samples 10 times through a high pressure extruder loaded with 100 nm polycarbonate filter membranes at 70° C.
(§1) Z-average size and polydispersity of the samples in PBS were measured using a Malvern ZS90 (Instruments, UK). Absorption spectra of each sample was determined by UV spectroscopy (CARY 50 UV/Vis S3 Spectrophotometer, Varian Inc.). Absorption spectra of intact samples was measured in PBS, and that of detergent disrupted samples was measured after adding Triton-X100 so that the final detergent concentration was 0.1% v/v.

A short description of series [3]: Fluorescence properties and quenching of chlorin derivatives in lipid nanovesicles. To be noted: embedded within lipid nanovesicles; for Full width at half max: fluorescence. The protocol:
Fluorescence measurements were carried out Fluoromax ut on a Fluoromax-4 spectrofluorometer (Horiba Jobin Yvon, NJ) Fluorescence spectra of intact and detergent disrupted state was measured by exciting samples at 556 nm with a 5 nm slit width and collecting fluorescence from 600 nm to 800 with a 5 nm slit width. Quenching efficiency was calculated by the following equation: […]
(§2) Where F0 and Fdetergent are the integration of fluorescence intensity from 600 nm to 800 nm for intact and detergent-disrupted sample respectively. Circular dichroism spectra was measured in PBS and 0.1% Triton-X100 using a J-815 Circular Dichroism Spectrometer (JASCO Inc.).

A short description of series [4]: Storage stability of nanoparticles at room temperature after freeze-thaw. The note with it: 10 days, PBS, after freeze-thaw rehydration. The protocol:
The color of Zn-MeO-chlorin acid (7) and Zn-MeO-chlorinchlorin lipid (11) nanoparticles was monitored after 10 freeze and thaw cycles. Concentration of chlorin dyes in each sample was adjusted to 60 μM. Samples were stored in the dark at room temperature for 10 days.

Series [5] is described as follows: UV/visible absorption and circular dichroism of chlorin-loaded lipid nanovesicles. The method, then:
as §1, §2
(CD spectra are sensitive to the conformation of chiral molecules.)

The mark [6] stands for this setting: 20% loading, intact nanovesicles.

“Also recorded” adds a separate entry of the source.

With `CCCCCCCC/C=C\CCCCCCCCNC(=O)CC[C@@H]1C2=C3CC(=O)c4c(C)c5[n](c43)[Zn][n]3c(c(C)c(CO)c3=CC3=NC(=C5)C(CC)=C3C)=CC(=N2)[C@H]1C` [Zn—OH-chlorin oleylamine, Zinc 3-Devinyl-3^1-hydroxyl-13^2-demethoxycarbonylpheophorbide-a oleylamine], in series [1], the Qy-band wavelength shift is 61 nm. In addition, the “absorption when nanostructures disrupted” value in series [1] (lipoprotein nanoparticles, disrupted) was 654 nm. Further, the “absorption of loaded (intact) nanoparticles” value in series [1] (lipoprotein nanoparticles, intact) amounted to 715 nm.
Regarding “Zinc 3-Devinyl-3′-methoxymethyl-13^2-demethoxycarbonylpheophorbide-a lipid [Zn-MeO-chlorin lipid]”, in series [2], the “PDI (polydispersity index)” value turned out to be 0.10 ± 0.04 and the Z-average is 96.0 ± 3.9 nm·days. For the same molecule, in series [3], the “FL λmax” value worked out at 725 nm, the “Stokes Shift” value is recorded as “no appreciable Stokes' shift” and the “Full width at half max” value is recorded as 15 nm. For the same molecule, the “Stokes Shift” value in series [3] (listed as Zn—MeO-chlorin lipid) turned out to be 0 nm. The “stability on storage (visible dispersion)” value in series [4] is “remained visibly dispersed”. In series [5] (setting [6]), the CD spectra entry was “bisignate spectra around the Qy band region”, the “far red-shifted absorption peak” value worked out at 725 nm and the “secondary peak red-shift from the monomer absorption” value worked out at 3 nm. Besides, the “bathochromic shift in the lowest energy absorption band (Qy)” value in series [5] (lipid nanovesicles vs monomeric state in methanol or 0.1% Triton X-100) was 72 nm. The “effect of dye loading beyond 20% on spectra” value in series [5] (loading titrated 1-30 mol % of total lipid) is “neither UV/Vis spectra nor CD spectra significantly changed”. Besides, the “ordered aggregation in the lipid bilayer” value in series [5] (nanovesicles) was “showed ordered aggregation”.
Consider `CCC1=C(C)C2=NC1=Cc1c(C)c3c4[n]1[Zn][n]1c(c(C)c(COC)c1=C2)=CC1=NC(=C4CC3=O)[C@@H](CCC(=O)O)[C@@H]1C` [Zn-MeO-chlorin acid, Zinc 3-devinyl-3′-methoxymethy-13^2-demethoxycarbonylpheophorbide-a], for which, in series [2], the “PDI (polydispersity index)” value is listed as > 0.3 and the Z-average was determined as 113.9 ± 9.6 nm·days. In series [2] (listed as Zu—MeO-chlorin acid), the “PDI (polydispersity index)” value worked out at 0.3 ± 0.2. In series [3], the “FL λmax” value is 664 nm, the “Stokes Shift” value amounted to 1 nm and the “Full width at half max” value is given as 24 nm. For the same molecule, in series [4], the “stability on storage (visible dispersion)” value was “flocculated after 10 days; also recorded: Precipitate was observed”. Also, the “shift in optical absorption / CD” value in series [5] (nanovesicles, 1% loading for Zn-MeO-chlorin acid, 20% for chlorin lipids) is reported as “did not demonstrate appreciable shift in optical absorption nor CD”.
“Zinc 13^2-demethoxycarbonylpheophorbide-a lipid [Zn-vinyl-chlorin lipid]” displayed a Z-average in series [2] of 101 ± 2.3 nm·days. Also, in series [3], the “FL λmax” value is recorded as 682 nm, the “Stokes Shift” value turned out to be 9 nm and the “Full width at half max” value is 21 nm. Besides, the “ordered aggregation in the lipid bilayer” value in series [5] (nanovesicles) is “did not”.
Molecule `CCCCCCCCCCCCCCCC(=O)OCC(COP(=O)([O-])OCC[N+](C)(C)C)OC(=O)CC[C@@H]1c2nc(cc3[nH]c(cc4nc(cc5[nH]c6c2CC(=O)c6c5C)C(CC)=C4C)c(COC)c3C)[C@H]1C` (some centres unmarked) [MeO-chlorin lipid, 3-Devinyl-3′-methoxymethyl-13^2-demethoxycarbonylpheophorbide-a lipid] showed a Z-average in series [2] of 105 ± 1.6 nm·days. In series [3], the “FL λmax” value is 676 nm, the “Stokes Shift” value is recorded as 10 nm and the “Full width at half max” value is 40 nm. Also, in series [5] (nanovesicles), the “ordered aggregation in the lipid bilayer” value was “did not”.
As for `C=Cc1c(C)c2[n]3c1=CC1=NC(=Cc4c(C)c5c([n]4[Zn]3)C(=C3N=C(C=2)[C@@H](C)[C@@H]3CCC(=O)NCCCCCCCC/C=C\CCCCCCCC)CC5=O)C(CC)=C1C` [Zn-vinyl-chlorin oleylamine, Zinc 13^2-demethoxycarbonylpheophorbide-a oleylamine], the Qy-band wavelength shift in series [1] turned out to be 8 nm.
